Key:
Assay in all cases: competitive TR-FRET assay, BET-BD with acetylated peptide ligand
Assay type in all cases: binding
BRD2-BD2 = BRD2-BD2 (Homo sapiens (Human), UniProt P25440); settings: for EC50: BRD2-BD2, Table 11 additional modifications, read-out: 2.2 EC50; for 2.1/2.2: ratio of BRD2-BD1 EC50 to BRD2-BD2 EC50 (selectivity)
Protocol: (§1) Inhibitor potency was determined using a competitive TR-FRET assay as detailed herein, measuring interaction of the respective BET-BD with an acetylated peptide ligand (Table 2).

BRDT = BRDT (Homo sapiens, UniProt Q58F21); settings: BRDT; Table 11 additional modifications; read-out: BRDT EC50
Protocol: as §1

BRD4-BD2 = BRD4-BD2 (Homo sapiens (Human), UniProt O60885); settings: BRD4-BD2; Table 11 additional modifications; read-out: 4.2 EC50
Protocol: as §1

BRD4-BD1 = BRD4-BD1 (Homo sapiens (Human), UniProt O60885); settings: BRD4-BD1; Table 11 additional modifications; read-out: 4.1 EC50
Protocol: as §1

BRD2-BD1 = BRD2-BD1 (Homo sapiens (Human), UniProt P25440); settings: BRD2-BD1; Table 11 additional modifications; read-out: 2.1 EC50
Sequence of BRD2-BD1 (P25440 74-180): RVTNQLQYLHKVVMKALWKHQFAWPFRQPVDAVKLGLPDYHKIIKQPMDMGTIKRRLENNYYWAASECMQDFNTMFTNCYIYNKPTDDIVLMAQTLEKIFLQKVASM
Protocol: as §1

BRD3-BD1 = BRD3-BD1 (Homo sapiens (Human), UniProt Q15059); settings: BRD3-BD1; Table 11 additional modifications; read-out: 3.1 EC50
Sequence of BRD3-BD1 (Q15059 34-140): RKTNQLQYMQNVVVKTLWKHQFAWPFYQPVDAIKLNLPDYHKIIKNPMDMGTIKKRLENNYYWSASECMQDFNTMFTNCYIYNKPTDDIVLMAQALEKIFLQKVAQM
Protocol: as §1

Sequence of BRD2-BD2 (P25440 344-453): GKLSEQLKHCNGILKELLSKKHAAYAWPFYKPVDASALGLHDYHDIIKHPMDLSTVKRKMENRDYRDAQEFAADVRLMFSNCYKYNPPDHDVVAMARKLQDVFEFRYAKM

Compound | EC50 (BRD2-BD2) | 2.1/2.2 (BRD2-BD2) | EC50 (BRDT) | EC50 (BRD4-BD2) | EC50 (BRD4-BD1) | EC50 (BRD2-BD1) | EC50 (BRD3-BD1)
CC(=O)Nc1cccc(-c2ccc3c(c2)[C@H](NC(=O)OC(C)C)C[C@H](C)N3C(C)=O)c1 [compound 1] | 0.29 µM | 2.9 | 5.9 µM | 0.23 µM | 0.67 µM | 0.85 µM | 0.62 µM
CC(=O)Nc1cccc(-c2ccc3c(c2)[C@H](Nc2ccc4c(c2)COC4=O)C[C@H](C)N3C(C)=O)c1 [compound 12] | 0.03 µM | 31 | 1.8 µM | 0.04 µM | 1.5 µM | 0.93 µM | 0.59 µM
COC(=O)c1ccccc1N[C@@H]1C[C@H](C)N(C(C)=O)c2ccc(-c3cccc(NC(C)=O)c3)cc21 [compound 15] | 0.11 µM | 64 | 0.7 µM | 0.1 µM | 7 µM | 7 µM | 10 µM
CC(=O)Nc1cccc(-c2ccc3c(c2)[C@H](NC2CCCCCC2)C[C@H](C)N3C(C)=O)c1 [compound 37] | 0.62 µM | 3.9 | 2.8 µM | 0.54 µM | 1.5 µM | 2.4 µM | 1.2 µM
CNCc1ccc(N[C@@H]2C[C@H](C)N(C(C)=O)c3ccc(-c4cccc(NC(C)=O)c4)cc32)cc1 [compound 23] | 0.1 µM | 23 | 2.1 µM | 0.32 µM | 1.5 µM | 2.3 µM | 0.71 µM
CC(=O)Nc1cccc(-c2ccc3c(c2)[C@H](Nc2cncnc2)C[C@H](C)N3C(C)=O)c1 [compound 16] | 0.98 µM | 10 | 17 µM | 1.9 µM | 13 µM | 9.8 µM | 6.4 µM
CC(=O)Nc1cccc(-c2ccc3c(c2)[C@H](Nc2ccc4c(c2)OCO4)C[C@H](C)N3C(C)=O)c1 [compound 14] | 0.09 µM | 20 | 2.6 µM | 0.06 µM | 2 µM | 1.8 µM | 1.19 µM
CC(=O)N1c2ccc(-c3cccc(N)c3)cc2[C@H](NC(=O)OC(C)C)C[C@@H]1C [compound 2] | 0.11 µM | 6.6 |  | 0.64 µM | 1.88 µM | 0.73 µM | 0.25 µM
COc1ccccc1-c1ccc2c(c1)[C@H](NC(=O)OC(C)C)C[C@H](C)N2C(C)=O [compound 60] | 2.9 µM | 5.3 |  | 14 µM | > 50 µM | 15 µM | 11 µM
COc1cccc(-c2ccc3c(c2)[C@H](NC(=O)OC(C)C)C[C@H](C)N3C(C)=O)c1 [compound 3] | 0.85 µM | 6.8 |  | > 67.8 µM | > 67.8 µM | 5.8 µM | 2.3 µM
CC(=O)N1c2ccc(-c3cccc([N+](=O)[O-])c3)cc2[C@H](NC(=O)OC(C)C)C[C@@H]1C [compound 58] | 1.1 µM | 7.0 |  | 6.2 µM | > 96 µM | 7.7 µM | 5.2 µM
CC(=O)Nc1cccc(-c2ccc3c(c2)[C@H](NC(=O)Cc2ccccc2)C[C@H](C)N3C(C)=O)c1 [compound 64] | 2 µM | 4.1 |  | 10 µM | 7.3 µM | 8.1 µM | 11 µM
CC(=O)Nc1cccc(-c2ccc3c(c2)[C@H](NCc2ccccc2)C[C@H](C)N3C(C)=O)c1 [compound 63] | 2.4 µM | 1.0 |  | 7.6 µM | 13 µM | 13 µM | 6.9 µM
COc1ccc(C(=O)N[C@@H]2C[C@H](C)N(C(C)=O)c3ccc(-c4cccc(NC(C)=O)c4)cc32)cc1 [compound 66] | 36 µM | 2.0 |  | 78 µM | 78 µM | 71 µM | 77 µM
COc1ccc(-c2ccc3c(c2)[C@H](NC(=O)OC(C)C)C[C@H](C)N3C(C)=O)cc1 [compound 59] | 1.2 µM | 2.9 |  | 2.1 µM | 3.5 µM | 3.6 µM | 1.9 µM

The remaining lines, values ahead:

EC50 (BRD2-BD2) | 2.1/2.2 (BRD2-BD2) | EC50 (BRDT) | EC50 (BRD4-BD2) | EC50 (BRD4-BD1) | EC50 (BRD2-BD1) | EC50 (BRD3-BD1) | Compound
0.59 µM | 36 | 10 µM | 0.9 µM | 21 µM | 21 µM | 10 µM | CC(=O)N1c2ccc(-c3cccc(NC(=O)OC(C)(C)C)c3)cc2[C@H](Nc2ccc(Cl)cc2)C[C@@H]1C [compound 134]
2.7 µM | 28 |  | 75 µM | 74 µM | 75 µM | 75 µM | CC(=O)Nc1cccc(-c2ccc3c(c2)[C@H](NC(=O)c2ccc(C(F)(F)F)cc2)C[C@H](C)N3C(C)=O)c1 [compound 69]
17 µM | 0.65 |  | 77 µM | 19 µM | 11 µM | 9.8 µM | CC(=O)Nc1cccc(-c2ccc3c(c2)[C@H](NC(=O)CCc2ccccc2)C[C@H](C)N3C(C)=O)c1 [compound 74]
83 µM | 0.20 |  | 19 µM | 33 µM | 16 µM | 12 µM | CC(=O)Nc1cccc(-c2ccc3c(c2)[C@H](NC(=O)CC(C)C)C[C@H](C)N3C(C)=O)c1 [compound 73]
9.7 µM | 1.6 |  | 14 µM | 15 µM | 16 µM | 10 µM | CC(=O)N1c2ccc(-c3ccc4c(c3)OCCO4)cc2[C@H](NC(=O)OC(C)C)C[C@@H]1C [compound 77]
10 µM | 6.9 |  | 20 µM | 80 µM | 70 µM | 41 µM | CC(=O)Nc1cccc(-c2ccc3c(c2)[C@H](NC(=O)c2ccc(F)cc2)C[C@H](C)N3C(C)=O)c1 [compound 68]
0.13 µM | 3.1 |  | 0.17 µM | 13 µM | 33 µM | 4.9 µM | CC(=O)Nc1cccc(-c2ccc3c(c2)[C@H](Nc2ccc(C(=O)O)cc2)C[C@H](C)N3C(C)=O)c1 [compound 120]
1.6 µM | 1.7 |  | 3.4 µM | 6 µM | 7.5 µM | 4.3 µM | CCOC(=O)c1ccc(-c2ccc3c(c2)[C@H](NC(=O)OC(C)C)C[C@H](C)N3C(C)=O)o1 [compound 83]
1.2 µM | 3.6 |  | 12 µM | 8.5 µM | 13 µM | 4.8 µM | CC(=O)N1c2ccc(C3=CCCO3)cc2[C@H](NC(=O)OC(C)C)C[C@@H]1C [compound 85]
1.1 µM | 6.0 |  | 2 µM | 3.5 µM | 4 µM | 2.7 µM | COC(=O)c1ccoc1-c1ccc2c(c1)[C@H](NC(=O)OC(C)C)C[C@H](C)N2C(C)=O [compound 82]
1.1 µM | 2.0 |  | 4 µM | 5.3 µM | 6.3 µM | 2.1 µM | CC(=O)N1c2ccc(-c3ccc4occc(=O)c4c3)cc2[C@H](NC(=O)OC(C)C)C[C@@H]1C [compound 80]
69 µM | 0.23 |  | 26 µM | 69 µM | 16 µM | 9.9 µM | CC(=O)Nc1cccc(-c2ccc3c(c2)[C@H](NCCCc2ccccc2)C[C@H](C)N3C(C)=O)c1 [compound 70]
0.46 µM | 2.5 |  | 3.5 µM | 2.1 µM | 2.5 µM | 0.99 µM | CC(=O)N1c2ccc(-c3cccc(NC(=O)OC(C)(C)C)c3)cc2[C@H](NC(=O)OC(C)C)C[C@@H]1C [compound 84]
0.27 µM | 12 |  | 0.65 µM | 3.2 µM | 3.4 µM | 2.3 µM | CC(=O)Nc1ccc(N[C@@H]2C[C@H](C)N(C(C)=O)c3ccc(-c4cccc(NC(C)=O)c4)cc32)cc1 [compound 76]
53 µM | 1.0 |  | 53 µM | 53 µM | 53 µM | 36 µM | CC(=O)Nc1cccc(-c2ccc3c(c2)[C@H](NCc2ccc(C(F)(F)F)cc2)C[C@H](C)N3C(C)=O)c1 [compound 75]
27 µM | 4.7 |  | 41 µM | 2.5 µM | 1.8 µM | 1 µM | CC(=O)N1c2ccc(-c3cc4ccccc4o3)cc2[C@H](NC(=O)OC(C)C)C[C@@H]1C [compound 86]
51 µM | 1.0 |  | 51 µM | 39 µM | 51 µM | 27 µM | CC(=O)Nc1cccc(-c2ccc3c(c2)[C@H](NC(=O)c2ccc(Cl)cc2)C[C@H](C)N3C(C)=O)c1 [compound 72]
2.7 µM | 2.6 |  | 8.8 µM | 8.2 µM | 7.1 µM | 2.2 µM | CC(=O)N1c2ccc(-c3ccc4cc[nH]c4c3)cc2[C@H](NC(=O)OC(C)C)C[C@@H]1C [compound 79]

Source: US11028051B2, “Tetrahydroquinoline-based bromodomain inhibitors” (St. Jude Children's Research Hospital, priority 2016, dated 2021)
